Where a SMILES comes first, the peptide text is derived from it. [ ]: non-standard residue; d: D form. The star is where a group is joined. Gly(N-(2R-Ph-propyl)) = C[C@@H](CNCC(=O)O)c1ccccc1; Piperidin1yl(4-NH2,4-COOH) = NC1(C(=O)O)CCN(*)CC1; N(Indan-2-yl)Gly = O=C(O)CNC1Cc2ccccc2C1; Gly(NCH2CH2Ph) = O=C(O)CNCCc1ccccc1; Morpholide = C1CN(*)CCO1; X1 = CNC(=O)NC1CCN(*)CC1
What was measured:
[1] = molecular target: Kappa-type opioid receptor (Homo sapiens, UniProt P41145); assay: Agonist activity at human kappa opioid receptor expressed in HEK293 cells assessed as inhibition of forskolin-induced cAMP accumulation measured after 5 hrs by One-Glo luciferase assay; assay type: functional, cell-based
[2] = Clearance in Beagle dog at 0.5 mg/kg, iv measured up to 24 hrs; assay type: ADME, organism-based, Canis lupus familiaris; settings: in vivo
Cytochrome P450 2D6 = Cytochrome P450 2D6 (Homo sapiens, UniProt P10635); assay: Inhibition of CYP2D6 in human pooled liver microsomes using dextromethorphan as substrate measured up to 20 mins by UHPLC-MS/MS analysis; assay type: ADME
[3] = molecular target: Delta-type opioid receptor (Homo sapiens, UniProt P41143); assay: Agonist activity at human delta opioid receptor assessed as inhibition of forskolin-induced cAMP accumulation
[4] = Half life in Beagle dog at 0.5 mg/kg, iv measured up to 24 hrs; assay type: ADME, organism-based, Canis lupus familiaris; settings: in vivo
Cytochrome P450 3A4 [5] = molecular target: T1, Cytochrome P450 3A4 (Homo sapiens, UniProt P08684); assay: Inhibition of CYP3A4 in human pooled liver microsomes using testosterone as substrate measured up to 20 mins by UHPLC-MS/MS analysis; assay type: ADME
Cytochrome P450 2C19 = Cytochrome P450 2C19 (Homo sapiens, UniProt P33261); assay: Inhibition of CYP2C19 in human pooled liver microsomes using S-mephenytoin as substrate measured up to 20 mins by UHPLC-MS/MS analysis; assay type: ADME
[6] = Half life in rat liver microsomes; assay type: ADME, Microsome
Cytochrome P450 2C9 = Cytochrome P450 2C9 (Homo sapiens, UniProt P11712); assay: Inhibition of CYP2C9 in human pooled liver microsomes using tolbutamide as substrate measured up to 20 mins by UHPLC-MS/MS analysis; assay type: ADME
[7] = Unbound brain-to-plasma concentration ratio in Sprague-Dawley rat at 1 mg/kg, iv; assay type: ADME, organism-based; settings: read-out: K(p,uu,brain)
[8] = Half life in dog liver microsomes; assay type: ADME, Canis lupus familiaris, Microsome
[9] = AUC (0 to t) in ICR mouse at 1 mg/kg, iv measured up to 24 hrs; assay type: ADME, organism-based; design: route intravenous, dose 1 mg/kg, time 24 hrs; settings: in vivo
[10] = AUC (0 to t) in Beagle dog at 0.5 mg/kg, iv measured up to 24 hrs; assay type: ADME, organism-based, Canis lupus familiaris; design: route intravenous, dose 0.5 mg/kg, time <=24; settings: in vivo
[11] = molecular target: Voltage-gated inwardly rectifying potassium channel KCNH2 (Homo sapiens, UniProt Q12809); assay: Inhibition of human ERG
Rattus norvegicus [12] = assay: Antiinflammatory activity in carrageenan-induced pain in iv dosed Wistar rat model assessed as effect on hindpaw withdrawal threshold administered 4 hrs post-carrageenan challenge and measured for 30 mins after compound administration by Von-Frey test; assay type: functional, organism-based; settings: dose mg/kg 0.03-0.3, time 30.0 min
[13] = Clearance in ICR mouse at 1 mg/kg, iv measured up to 24 hrs; assay type: ADME, organism-based; settings: in vivo
Rattus norvegicus [14] = assay: Antiinflammatory activity in carrageenan-induced pain in Wistar rat model assessed as effect on hindpaw withdrawal threshold at 0.03 to 0.3 mg/kg, iv administered 4 hrs post-carrageenan challenge and measured for 30 mins after compound administration by Von-Frey test relative to control; assay type: functional; settings: dose mg/kg 0.03-0.3, 0.5 h
[15] = Apparent volume of distribution in Sprague-Dawley rat at 1 mg/kg, iv measured up to 24 hrs; assay type: ADME, organism-based; settings: in vivo, read-out: Vz
[16] = Half life in Sprague-Dawley rat at 1 mg/kg, iv measured up to 24 hrs; assay type: ADME, organism-based; settings: in vivo
[17] = Half life in ICR mouse at 1 mg/kg, iv measured up to 24 hrs; assay type: ADME, organism-based; settings: in vivo
[18] = Drug concentration in Sprague-Dawley rat plasma at 1 mg/kg, iv; assay type: ADME, organism-based; settings: in vivo
Cytochrome P450 3A4 [19] = molecular target: T1, Cytochrome P450 3A4; assay: Inhibition of CYP3A4 in human pooled liver microsomes using midazolam as substrate measured up to 20 mins by UHPLC-MS/MS analysis; assay type: ADME
[20] = Unbound fraction in Sprague-Dawley rat plasma at 1 mg/kg, iv; assay type: ADME, organism-based
[21] = Apparent volume of distribution in Beagle dog at 0.5 mg/kg, iv measured up to 24 hrs; assay type: ADME, organism-based, Canis lupus familiaris; settings: in vivo, read-out: Vz
[22] = Half life in mouse liver microsomes; assay type: ADME, Microsome
Cytochrome P450 1A2 = molecular target: T2, Cytochrome P450 1A2 (Homo sapiens, UniProt P05177); assay: Inhibition of CYP1A2 in human pooled liver microsomes using phenacetin as substrate measured up to 20 mins by UHPLC-MS/MS analysis; assay type: ADME
T2 sequence (P05177 whole entry): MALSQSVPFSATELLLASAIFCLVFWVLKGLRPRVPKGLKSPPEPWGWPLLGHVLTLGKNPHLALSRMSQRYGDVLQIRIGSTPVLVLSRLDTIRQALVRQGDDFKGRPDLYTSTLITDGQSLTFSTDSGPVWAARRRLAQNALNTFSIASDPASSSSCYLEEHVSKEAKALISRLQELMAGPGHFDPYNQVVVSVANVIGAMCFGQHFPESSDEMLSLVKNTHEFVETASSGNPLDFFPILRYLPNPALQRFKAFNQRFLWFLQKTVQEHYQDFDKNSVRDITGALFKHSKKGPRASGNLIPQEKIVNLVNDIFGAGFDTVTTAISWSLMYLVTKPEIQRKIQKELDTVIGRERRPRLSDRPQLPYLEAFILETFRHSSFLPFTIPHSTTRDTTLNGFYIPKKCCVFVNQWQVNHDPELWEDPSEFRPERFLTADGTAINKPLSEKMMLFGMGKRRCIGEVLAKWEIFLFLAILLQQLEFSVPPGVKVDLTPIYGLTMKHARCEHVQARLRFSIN

Mu-type opioid receptor = Mu-type opioid receptor (Homo sapiens, UniProt P35372); assay: Agonist activity at human mu opioid receptor assessed as inhibition of forskolin-induced cAMP accumulation; assay type: ADME
[23] = Apparent volume of distribution in ICR mouse at 1 mg/kg, iv measured up to 24 hrs; assay type: ADME, organism-based; settings: in vivo, read-out: Vz
[24] = Drug concentration in Sprague-Dawley rat brain at 1 mg/kg, iv; assay type: ADME, organism-based; settings: in vivo
[25] = Half life in human liver microsomes; assay type: ADME, Microsome
[26] = Unbound fraction in Sprague-Dawley rat brain at 1 mg/kg, iv; assay type: ADME, organism-based
[27] = Clearance in Sprague-Dawley rat at 1 mg/kg, iv measured up to 24 hrs; assay type: ADME, organism-based; settings: in vivo
[28] = AUC (0 to t) in Sprague-Dawley rat at 1 mg/kg, iv measured up to 24 hrs; assay type: ADME, organism-based; design: route intravenous, dose 1 mg/kg, time <=24; settings: in vivo
Rattus norvegicus [29] = assay: Antiinflammatory activity in carrageenan-induced pain in Wistar rat model assessed as effect on hindpaw withdrawal threshold at 0.3 mg/kg, iv administered 4 hrs post-carrageenan challenge and measured for 30 mins after compound administration by Von-Frey test relative to control; assay type: functional; settings: dose mg/kg 0.03-0.3, 0.5 h

Kappa-type opioid receptor, sequence (P41145 whole entry): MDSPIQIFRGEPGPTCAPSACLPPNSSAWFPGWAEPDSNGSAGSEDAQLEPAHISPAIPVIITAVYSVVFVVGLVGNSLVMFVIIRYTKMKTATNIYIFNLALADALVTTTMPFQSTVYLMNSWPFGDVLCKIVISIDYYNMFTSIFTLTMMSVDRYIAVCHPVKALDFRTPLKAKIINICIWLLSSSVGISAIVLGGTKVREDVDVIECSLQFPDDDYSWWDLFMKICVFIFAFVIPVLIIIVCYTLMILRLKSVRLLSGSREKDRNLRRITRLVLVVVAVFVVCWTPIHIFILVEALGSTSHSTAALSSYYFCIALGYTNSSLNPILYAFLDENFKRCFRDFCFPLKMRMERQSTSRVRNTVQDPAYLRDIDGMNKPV
T1 sequence (P08684 whole entry): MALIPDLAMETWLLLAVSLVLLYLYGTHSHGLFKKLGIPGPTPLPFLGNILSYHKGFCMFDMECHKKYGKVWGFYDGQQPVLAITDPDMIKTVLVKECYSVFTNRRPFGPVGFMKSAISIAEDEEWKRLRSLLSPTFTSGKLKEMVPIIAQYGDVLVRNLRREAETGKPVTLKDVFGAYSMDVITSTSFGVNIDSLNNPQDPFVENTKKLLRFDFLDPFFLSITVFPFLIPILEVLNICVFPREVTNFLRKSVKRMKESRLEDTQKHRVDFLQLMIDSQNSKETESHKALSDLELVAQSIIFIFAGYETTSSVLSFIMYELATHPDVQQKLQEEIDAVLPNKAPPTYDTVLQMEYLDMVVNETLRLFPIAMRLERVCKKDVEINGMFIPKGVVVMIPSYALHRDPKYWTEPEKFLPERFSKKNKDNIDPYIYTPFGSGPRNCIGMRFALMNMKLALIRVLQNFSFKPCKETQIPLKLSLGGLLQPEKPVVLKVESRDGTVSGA
Cytochrome P450 2D6, sequence (P10635 whole entry): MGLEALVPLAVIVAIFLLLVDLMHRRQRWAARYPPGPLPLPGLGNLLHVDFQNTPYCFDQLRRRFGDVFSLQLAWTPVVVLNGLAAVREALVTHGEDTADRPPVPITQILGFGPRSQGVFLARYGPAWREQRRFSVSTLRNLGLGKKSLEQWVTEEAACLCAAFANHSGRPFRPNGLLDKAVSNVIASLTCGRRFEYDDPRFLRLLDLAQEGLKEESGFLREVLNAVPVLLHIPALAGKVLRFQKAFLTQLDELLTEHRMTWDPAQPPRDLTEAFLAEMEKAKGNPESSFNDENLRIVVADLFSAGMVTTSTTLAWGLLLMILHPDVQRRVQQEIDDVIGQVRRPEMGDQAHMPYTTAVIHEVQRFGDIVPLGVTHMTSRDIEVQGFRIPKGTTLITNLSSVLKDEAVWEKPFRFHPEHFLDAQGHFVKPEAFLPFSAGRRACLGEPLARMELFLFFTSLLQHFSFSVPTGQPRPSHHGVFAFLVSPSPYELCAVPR
Cytochrome P450 2C9, sequence (P11712 whole entry): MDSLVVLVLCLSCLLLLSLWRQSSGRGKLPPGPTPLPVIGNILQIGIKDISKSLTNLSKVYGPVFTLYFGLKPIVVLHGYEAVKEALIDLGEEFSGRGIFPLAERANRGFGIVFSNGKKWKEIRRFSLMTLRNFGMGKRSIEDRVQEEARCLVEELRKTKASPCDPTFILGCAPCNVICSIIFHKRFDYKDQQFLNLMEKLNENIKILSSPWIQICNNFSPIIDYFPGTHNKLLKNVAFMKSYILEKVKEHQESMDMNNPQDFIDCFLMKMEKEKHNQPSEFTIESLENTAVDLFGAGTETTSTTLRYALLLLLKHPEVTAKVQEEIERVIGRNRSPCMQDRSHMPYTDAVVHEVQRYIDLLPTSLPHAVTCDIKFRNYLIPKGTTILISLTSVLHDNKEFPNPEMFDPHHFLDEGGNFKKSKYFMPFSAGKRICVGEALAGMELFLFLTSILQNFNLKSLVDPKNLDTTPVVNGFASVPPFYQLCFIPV
Cytochrome P450 2C19, sequence (P33261 whole entry): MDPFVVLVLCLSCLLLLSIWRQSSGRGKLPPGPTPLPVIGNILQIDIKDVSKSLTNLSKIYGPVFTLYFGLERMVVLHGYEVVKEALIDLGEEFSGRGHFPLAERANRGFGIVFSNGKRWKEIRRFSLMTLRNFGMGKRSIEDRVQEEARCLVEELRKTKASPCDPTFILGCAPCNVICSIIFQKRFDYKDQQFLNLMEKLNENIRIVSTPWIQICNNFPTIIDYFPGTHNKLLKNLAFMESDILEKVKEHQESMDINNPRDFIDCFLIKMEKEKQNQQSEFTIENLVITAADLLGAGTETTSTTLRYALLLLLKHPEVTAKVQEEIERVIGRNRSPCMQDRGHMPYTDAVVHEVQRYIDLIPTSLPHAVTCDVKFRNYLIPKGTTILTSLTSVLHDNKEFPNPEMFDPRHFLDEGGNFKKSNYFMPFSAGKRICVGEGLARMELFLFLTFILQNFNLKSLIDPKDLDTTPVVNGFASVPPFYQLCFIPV
Mu-type opioid receptor, sequence (P35372 whole entry): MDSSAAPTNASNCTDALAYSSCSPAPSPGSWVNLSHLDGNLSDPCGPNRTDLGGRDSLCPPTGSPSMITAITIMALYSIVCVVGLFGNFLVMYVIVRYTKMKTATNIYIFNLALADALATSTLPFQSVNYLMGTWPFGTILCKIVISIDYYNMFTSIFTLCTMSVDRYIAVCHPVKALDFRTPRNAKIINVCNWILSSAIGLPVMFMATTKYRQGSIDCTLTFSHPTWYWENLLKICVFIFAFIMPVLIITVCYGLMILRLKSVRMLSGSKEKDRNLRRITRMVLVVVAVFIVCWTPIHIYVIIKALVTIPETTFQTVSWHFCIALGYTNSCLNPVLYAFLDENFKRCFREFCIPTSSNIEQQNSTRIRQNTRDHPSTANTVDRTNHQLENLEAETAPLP
Voltage-gated inwardly rectifying potassium channel KCNH2, sequence (Q12809 whole entry): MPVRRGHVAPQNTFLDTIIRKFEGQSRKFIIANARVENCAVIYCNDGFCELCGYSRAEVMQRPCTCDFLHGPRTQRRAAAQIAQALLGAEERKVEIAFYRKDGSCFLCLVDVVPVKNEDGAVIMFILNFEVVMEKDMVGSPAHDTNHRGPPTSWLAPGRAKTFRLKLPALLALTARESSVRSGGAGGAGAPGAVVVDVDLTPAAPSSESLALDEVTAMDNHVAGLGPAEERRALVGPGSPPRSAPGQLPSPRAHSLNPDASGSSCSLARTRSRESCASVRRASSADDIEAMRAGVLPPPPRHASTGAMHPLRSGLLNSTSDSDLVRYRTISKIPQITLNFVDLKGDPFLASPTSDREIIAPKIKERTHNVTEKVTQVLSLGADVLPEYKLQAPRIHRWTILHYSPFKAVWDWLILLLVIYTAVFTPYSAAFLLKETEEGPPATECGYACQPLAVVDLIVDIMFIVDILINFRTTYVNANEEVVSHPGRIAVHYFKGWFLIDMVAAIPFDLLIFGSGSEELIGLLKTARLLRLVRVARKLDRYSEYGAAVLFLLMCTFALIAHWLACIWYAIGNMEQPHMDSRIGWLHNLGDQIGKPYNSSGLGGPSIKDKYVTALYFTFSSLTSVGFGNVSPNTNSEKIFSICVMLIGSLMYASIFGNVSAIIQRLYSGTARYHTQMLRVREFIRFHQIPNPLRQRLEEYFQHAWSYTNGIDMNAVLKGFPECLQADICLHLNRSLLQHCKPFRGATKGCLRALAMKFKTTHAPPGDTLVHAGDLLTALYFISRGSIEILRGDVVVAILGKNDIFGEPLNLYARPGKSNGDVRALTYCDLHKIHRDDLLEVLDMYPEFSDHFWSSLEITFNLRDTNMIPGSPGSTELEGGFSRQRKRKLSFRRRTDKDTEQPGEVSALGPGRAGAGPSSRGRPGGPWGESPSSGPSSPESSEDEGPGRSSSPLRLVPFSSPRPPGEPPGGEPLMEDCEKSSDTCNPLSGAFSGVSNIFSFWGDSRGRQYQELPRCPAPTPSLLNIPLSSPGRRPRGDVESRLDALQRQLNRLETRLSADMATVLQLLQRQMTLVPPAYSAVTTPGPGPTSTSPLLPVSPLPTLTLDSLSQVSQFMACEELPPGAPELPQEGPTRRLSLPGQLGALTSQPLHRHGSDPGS
Delta-type opioid receptor, sequence (P41143 whole entry): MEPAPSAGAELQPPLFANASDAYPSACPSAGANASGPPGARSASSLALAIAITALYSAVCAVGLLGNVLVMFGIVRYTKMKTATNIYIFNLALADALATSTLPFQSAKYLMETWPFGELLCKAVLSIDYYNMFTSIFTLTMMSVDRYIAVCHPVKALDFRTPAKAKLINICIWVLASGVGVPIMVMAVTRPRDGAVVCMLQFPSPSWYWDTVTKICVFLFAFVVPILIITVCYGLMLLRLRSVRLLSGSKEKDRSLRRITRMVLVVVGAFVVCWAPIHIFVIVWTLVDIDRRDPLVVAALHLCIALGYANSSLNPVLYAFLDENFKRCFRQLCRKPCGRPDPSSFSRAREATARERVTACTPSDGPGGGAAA

## CC(C)C[C@@H](NC(=O)[C@@H](Cc1ccccc1)NC(=O)[C@@H]1Cc2ccccc2CN1)C(=O)N[C@H](CCCCN)C(=O)N1CCOCC1
[1]
  EC50: > 1 nM

## CC(C)C[C@@H](NC(=O)[C@@H](Cc1ccccc1)NC(=O)C1(NCCc2ccccc2)CC1)C(=O)N[C@H](CCCCN)C(=O)N1CCC(N)(C(=O)O)CC1
[1]
  EC50: > 1 nM

## CC(C)C[C@@H](NC(=O)[C@@H](Cc1ccccc1)NC(=O)CNCc1ccccc1)C(=O)N[C@H](CCCCN)C(=O)N1CCOCC1
[1]
  EC50: > 1 nM

## CC(C)C[C@@H](NC(=O)[C@@H](Cc1ccccc1)NC(=O)CNC[C@@H](c1ccccc1)C(C)C)C(=O)N[C@H](CCCCN)C(=O)N1CCC(N)(C(=O)O)CC1
[1]
  EC50: 0.0095 nM

## CC(C)C[C@@H](NC(=O)[C@@H](Cc1ccccc1)NC(=O)CN[C@H]1C[C@@H]1c1ccccc1)C(=O)N[C@H](CCCCN)C(=O)N1CCOCC1
[1]
  EC50: 0.08 nM

## CC(C)C[C@@H](NC(=O)[C@@H](Cc1ccccc1)NC(=O)CNC[C@@H](C)c1ccccc1)C(=O)N[C@H](CCCCN)C(=O)N1CCC(N)(C(=O)O)CC1
[1]
  EC50: 0.0155 nM

## CC(C)C[C@@H](NC(=O)[C@@H](Cc1ccccc1)NC(=O)CNCCCc1ccccc1)C(=O)N[C@H](CCCCN)C(=O)N1CCOCC1
[1]
  EC50: 0.045 nM

## CC(C)C[C@@H](NC(=O)[C@@H](Cc1ccccc1)NC(=O)[C@@H](C)NCCc1ccccc1)C(=O)N[C@H](CCCCN)C(=O)N1CCC(N)(C(=O)O)CC1
[1]
  EC50: > 1 nM

## CC(C)C[C@@H](NC(=O)[C@@H](Cc1ccccc1)NC(=O)CNCC1(c2ccccc2)CC1)C(=O)N[C@H](CCCCN)C(=O)N1CCC(N)(C(=O)O)CC1
[1]
  EC50: 0.057 nM

## CC(C)C[C@@H](NC(=O)[C@@H](Cc1ccccc1)NC(=O)CNCCc1ccccc1)C(=O)N[C@H](CCCCN)C(=O)N1CCOCC1
[1]
  EC50: 0.048 nM

## CC(C)C[C@@H](NC(=O)[C@@H](Cc1ccccc1)NC(=O)CNCC(C)(C)c1ccccc1)C(=O)N[C@H](CCCCN)C(=O)N1CCC(N)(C(=O)O)CC1
[1]
  EC50: 0.078 nM

## CNC(=O)NC1CCN(C(=O)[C@@H](CCCCN)NC(=O)[C@@H](CC(C)C)NC(=O)[C@@H](Cc2ccccc2)NC(=O)CNC[C@H](C)c2ccccc2)CC1 (H-[Gly(N-(2R-Ph-propyl))][dF][dL][dK]-X1)
[2]
  clearance: 0.186 L/h/kg
Cytochrome P450 2D6
  IC50: > 30000 nM
[3]
  EC50: > 50000 nM
[4]
  half-life: 4.45 h
Cytochrome P450 3A4 [5]
  IC50: > 30000 nM
Cytochrome P450 2C19
  IC50: > 30000 nM
[6]
  half-life: > 4.47 h
Cytochrome P450 2C9
  IC50: > 30000 nM
[7]
  Kp uu: 0.006
[8]
  half-life: 3.6 h
[9]
  AUC(0-t) at 24 h: 1.66 µg·h/mL
[10]
  AUC(0-t) at 24 h: 2.62 µg·h/mL
[11]
  IC50: > 30000 nM
Rattus norvegicus [12]
  Activity: Dose-dependent effect
[13]
  clearance: 0.606 L/h/kg
[1]
  EC50: 0.00053 nM
Rattus norvegicus [14]
  Activity: 28.9%
[15]
  Vd: 4.51 L/kg
[16]
  half-life: 4.78 h
[17]
  half-life: 0.34 h
[18]
  Cp: 1.144 µg/mL
Cytochrome P450 3A4 [19]
  IC50: > 30000 nM
[20]
  fraction unbound: 0.211
[21]
  Vd: 1.24 L/kg
[22]
  half-life: 1.92 h
Cytochrome P450 1A2
  IC50: > 30000 nM
Mu-type opioid receptor
  EC50: > 50000 nM
[23]
  Vd: 0.297 L/kg
[24]
  Ct: 57.2 ng/g
[25]
  half-life: 0.667 h
[26]
  fraction unbound: 0.0258
[27]
  clearance: 0.63 L/h/kg
[28]
  AUC(0-t) at 24 h: 1.55 µg·h/mL
Rattus norvegicus [29]
  Activity: 66.7%

## CC(C)C[C@@H](NC(=O)[C@@H](Cc1ccccc1)NC(=O)CNCCc1ccccc1)C(=O)N[C@H](CCCCN)C(=O)N1CCC(N)(C(=O)O)CC1 (H-[Gly(NCH2CH2Ph)][dF][dL][dK]-{Piperidin1yl(4-NH2,4-COOH)})
[1]
  EC50: 0.054 nM

## CC(C)C[C@@H](NC(=O)[C@@H](Cc1ccccc1)NC(=O)CNC1Cc2ccccc2C1)C(=O)N[C@H](CCCCN)C(=O)N1CCOCC1 (H-[N(Indan-2-yl)Gly][dF][dL][dK]-Morpholide)
[1]
  EC50: > 1 nM

## CCC(CNCC(=O)N[C@H](Cc1ccccc1)C(=O)N[C@H](CC(C)C)C(=O)N[C@H](CCCCN)C(=O)N1CCC(N)(C(=O)O)CC1)c1ccccc1 (mixture of isomers)
[1]
  EC50: 0.0029 nM

## CC(C)C[C@@H](NC(=O)[C@@H](Cc1ccccc1)NC(=O)[C@H](N)Cc1ccccc1)C(=O)N[C@H](CCCCN)C(=O)N1CCC(N)(C(=O)O)CC1 [DIFELIKEFALIN]
[1]
  EC50: 0.00262 nM
Rattus norvegicus [29]
  Activity: 61.9%

## CC(C)C[C@@H](NC(=O)[C@@H](Cc1ccccc1)NC(=O)CNC[C@H](C)c1ccccc1)C(=O)N[C@H](CCCCN)C(=O)N1CCC(N)(C(=O)O)CC1 [RIMINKEFON]
[1]
  EC50: 0.0014 nM

From ChEMBL document CHEMBL4725465 (ACS Med Chem Lett, 2020)
